Results reported in patent publication US20240148709A1, “METHODS OF TREATING EYE PAIN AND EYE DISORDERS” (Aisa Pharma, Inc., priority 2022, published 2024).

System: participants with SSc-RP
Assay: Scleroderma Health Assessment Questionnaire (SHAQ), Phase 2a study Part A
Assay type: in vivo, human
Details: cilnidipine 10 mg and/or tadalafil 5 mg arms
Procedure: Part A—double-blind, placebo-controlled, parallel-group, dose selection, will assess the safety and efficacy of two doses of cilnidipine (10 mg and 20 mg), alone and in combination with tadalafil. A total of 36 participants will be randomized to one of six prespecified treatment arms. Refer to FIG. 1 for treatment arms in Part A of the study. Dosing last for 12 (±2) days in which participants will self-administer daily doses of assigned treatment in the morning. Each participant will take one capsule and one tablet to blind the active therapy being received.
The standard, validated, patient reported outcome measures tool for SSc patients, the SHAQ, will be collected at the time points specified in the study schedules (FIG. 2 and FIGS. 3A and 3B) to assess the participant's quality of life. The SHAQ includes a Raynaud's VAS that will also be reported separately.
Results: Patients in the study were administered the Scleroderma Health Assessment Questionnaire (SHAQ) at the time of study entry and during clinic visits following the treatment period. The study is a two-part, parallel arm design, prospective, double-blind, randomized study conducted in Australia (Flinders Medical Center). 27 patients were randomized into the first phase of the study, following which a DSMB meeting was held, which reviewed data on the primary study endpoint and key Raynaud's secondary endpoints. Data on the SHAQ was not available for the DSMB to review. The mITT population, in which any data was available post treatment was 24 patients was the analysis population for this first part of the study. The second part (i.e., part B) of the study will randomize 36 patients in a double blind, randomized, prospective, placebo controlled, crossover study. In the first part (i.e., Part A) of the study for which data is presented, patients were randomized into 6 groups, cilnidipine at two doses (10 and 20 mg) alone and in combination with tadalafil 5 mg, tadalafil 5 mg alone, and placebo. […] The DSMB recommended that the study proceed into its double blind prospective cross overpowered second phase and compare cilnidipine 20 mg alone to placebo.

CN1CC(=O)N2[C@H](c3ccc4c(c3)OCO4)c3[nH]c4ccccc4c3C[C@@H]2C1=O [Tadalafil, tadalafil]
SHAQ Finger Ulcers, Change from Baseline, Max: 1.00 | SHAQ Finger Ulcers, Change from Baseline, Mean (SD): 0.250 (0.5000) | SHAQ Finger Ulcers, Change from Baseline, Median: 0.000 | SHAQ Finger Ulcers, Change from Baseline, Min: 0.00 | SHAQ Finger Ulcers, Change from Baseline, Q1: 0.000 | SHAQ Finger Ulcers, Change from Baseline, Q3: 0.500 | SHAQ Finger Ulcers, In Clinic Visit (Day 12), Max: 9.20 | SHAQ Finger Ulcers, In Clinic Visit (Day 12), Mean (SD): 2.325 (4.5836) | SHAQ Finger Ulcers, In Clinic Visit (Day 12), Median: 0.050 | SHAQ Finger Ulcers, In Clinic Visit (Day 12), Min: 0.00 | SHAQ Finger Ulcers, In Clinic Visit (Day 12), Q1: 0.000 | SHAQ Finger Ulcers, In Clinic Visit (Day 12), Q3: 4.650 | SHAQ Finger Ulcers, Percent Change from Baseline, Max: 12.2% | SHAQ Finger Ulcers, Percent Change from Baseline, Mean (SD): 6.10 (8.623) % | SHAQ Finger Ulcers, Percent Change from Baseline, Median: 6.10% | SHAQ Finger Ulcers, Percent Change from Baseline, Min: 0.0% | SHAQ Finger Ulcers, Percent Change from Baseline, Q1: 0.00% | SHAQ Finger Ulcers, Percent Change from Baseline, Q3: 12.20% | SHAQ Overall Change in Severity, Change from Baseline, Max: 2.40 | SHAQ Overall Change in Severity, Change from Baseline, Median: 0.700 | SHAQ Overall Change in Severity, Change from Baseline, Min: −1.30 | SHAQ Overall Change in Severity, Change from Baseline, Q1: −0.600 | SHAQ Overall Change in Severity, Change from Baseline, Q3: 1.850 | SHAQ Overall Change in Severity, In Clinic Visit (Day 12), Max: 9.10 | SHAQ Overall Change in Severity, In Clinic Visit (Day 12), Mean (SD): 5.600 (4.2528) | SHAQ Overall Change in Severity, In Clinic Visit (Day 12), Median: 6.550 | SHAQ Overall Change in Severity, In Clinic Visit (Day 12), Min: 0.20 | SHAQ Overall Change in Severity, In Clinic Visit (Day 12), Q1: 2.200 | SHAQ Overall Change in Severity, In Clinic Visit (Day 12), Q3: 9.000 | SHAQ Overall Change in Severity, Percent Change from Baseline, Max: 100.0% | SHAQ Overall Change in Severity, Percent Change from Baseline, Mean (SD): 32.49 (51.568) % | SHAQ Overall Change in Severity, Percent Change from Baseline, Median: 26.790% | SHAQ Overall Change in Severity, Percent Change from Baseline, Min: −23.6% | SHAQ Overall Change in Severity, Percent Change from Baseline, Q1: −3.48% | SHAQ Overall Change in Severity, Percent Change from Baseline, Q3: 68.46% | SHAQ Standard disability index, Change from Baseline, Max: 0.00 | SHAQ Standard disability index, Change from Baseline, Mean (SD): −0.063 (0.0722) | SHAQ Standard disability index, Change from Baseline, Median: −0.063 | SHAQ Standard disability index, Change from Baseline, Min: −0.13 | SHAQ Standard disability index, Change from Baseline, Q1: −0.125 | SHAQ Standard disability index, Change from Baseline, Q3: 0.000 | SHAQ Standard disability index, In Clinic Visit (Day 12), Max: 1.00 | SHAQ Standard disability index, In Clinic Visit (Day 12), Mean (SD): 0.531 (0.4130) | SHAQ Standard disability index, In Clinic Visit (Day 12), Median: 0.563 | SHAQ Standard disability index, In Clinic Visit (Day 12), Min: 0.00 | SHAQ Standard disability index, In Clinic Visit (Day 12), Q1: 0.250 | SHAQ Standard disability index, In Clinic Visit (Day 12), Q3: 0.813 | SHAQ Standard disability index, Percent Change from Baseline, Max: 0.0% | SHAQ Standard disability index, Percent Change from Baseline, Mean (SD): −9.26 (8.486) % | SHAQ Standard disability index, Percent Change from Baseline, Median: −11.11% | SHAQ Standard disability index, Percent Change from Baseline, Min: −16.7% | SHAQ Standard disability index, Percent Change from Baseline, Q1: −16.67% | SHAQ Standard disability index, Percent Change from Baseline, Q3: 0.00% | SHAQ Visual Analog Scale-Breathing Problems, Change from Baseline, Max: 2.80 | SHAQ Visual Analog Scale-Breathing Problems, Change from Baseline, Mean (SD): 0.500 (2.5599) | SHAQ Visual Analog Scale-Breathing Problems, Change from Baseline, Median: 1.050 | SHAQ Visual Analog Scale-Breathing Problems, Change from Baseline, Min: −2.90 | SHAQ Visual Analog Scale-Breathing Problems, Change from Baseline, Q1: −1.450 | SHAQ Visual Analog Scale-Breathing Problems, Change from Baseline, Q3: 2.450 | SHAQ Visual Analog Scale-Breathing Problems, In Clinic Visit (Day 12), Max: 9.20 | SHAQ Visual Analog Scale-Breathing Problems, In Clinic Visit (Day 12), Mean (SD): 4.300 (4.8840) | SHAQ Visual Analog Scale-Breathing Problems, In Clinic Visit (Day 12), Median: 4.000 | SHAQ Visual Analog Scale-Breathing Problems, In Clinic Visit (Day 12), Min: 0.00 | SHAQ Visual Analog Scale-Breathing Problems, In Clinic Visit (Day 12), Q1: 0.100 | SHAQ Visual Analog Scale-Breathing Problems, In Clinic Visit (Day 12), Q3: 8.500 | SHAQ Visual Analog Scale-Breathing Problems, Percent Change from Baseline, Max: 56.0% | SHAQ Visual Analog Scale-Breathing Problems, Percent Change from Baseline, Mean (SD): −2.66 (79.815) % | SHAQ Visual Analog Scale-Breathing Problems, Percent Change from Baseline, Median: 29.58% | SHAQ Visual Analog Scale-Breathing Problems, Percent Change from Baseline, Min: −93.5% | SHAQ Visual Analog Scale-Breathing Problems, Percent Change from Baseline, Q1: −93.55% | SHAQ Visual Analog Scale-Breathing Problems, Percent Change from Baseline, Q3: 56.00% | SHAQ Visual Analog Scale-Intestinal Problems, Change from Baseline, Max: 1.80 | SHAQ Visual Analog Scale-Intestinal Problems, Change from Baseline, Mean (SD): −0.125 (1.6800) | SHAQ Visual Analog Scale-Intestinal Problems, Change from Baseline, Median: 0.000 | SHAQ Visual Analog Scale-Intestinal Problems, Change from Baseline, Min: −2.30 | SHAQ Visual Analog Scale-Intestinal Problems, Change from Baseline, Q1: −1.150 | SHAQ Visual Analog Scale-Intestinal Problems, Change from Baseline, Q3: 0.900 | SHAQ Visual Analog Scale-Intestinal Problems, In Clinic Visit (Day 12), Max: 9.20 | SHAQ Visual Analog Scale-Intestinal Problems, In Clinic Visit (Day 12), Mean (SD): 3.025 (4.3162) | SHAQ Visual Analog Scale-Intestinal Problems, In Clinic Visit (Day 12), Median: 1.450 | SHAQ Visual Analog Scale-Intestinal Problems, In Clinic Visit (Day 12), Min: 0.00 | SHAQ Visual Analog Scale-Intestinal Problems, In Clinic Visit (Day 12), Q1: 0.050 | SHAQ Visual Analog Scale-Intestinal Problems, In Clinic Visit (Day 12), Q3: 6.000 | SHAQ Visual Analog Scale-Intestinal Problems, Percent Change from Baseline, Max: 24.3% | SHAQ Visual Analog Scale-Intestinal Problems, Percent Change from Baseline, Mean (SD): −6.92 (35.225) % | SHAQ Visual Analog Scale-Intestinal Problems, Percent Change from Baseline, Median: 0.00% | SHAQ Visual Analog Scale-Intestinal Problems, Percent Change from Baseline, Min: −45.1% | SHAQ Visual Analog Scale-Intestinal Problems, Percent Change from Baseline, Q1: −45.10% | SHAQ Visual Analog Scale-Intestinal Problems, Percent Change from Baseline, Q3: 24.32% | SHAQ Visual Analog Scale-Pain, Change from Baseline, Max: 1.50 | SHAQ Visual Analog Scale-Pain, Change from Baseline, Mean (SD): 1.000 (0.4359) | SHAQ Visual Analog Scale-Pain, Change from Baseline, Median: 0.800 | SHAQ Visual Analog Scale-Pain, Change from Baseline, Min: 0.70 | SHAQ Visual Analog Scale-Pain, Change from Baseline, Q1: 0.700 | SHAQ Visual Analog Scale-Pain, Change from Baseline, Q3: 1.500 | SHAQ Visual Analog Scale-Pain, In Clinic Visit (Day 12), Max: 9.20 | SHAQ Visual Analog Scale-Pain, In Clinic Visit (Day 12), Mean (SD): 5.300 (4.1577) | SHAQ Visual Analog Scale-Pain, In Clinic Visit (Day 12), Median: 5.850 | SHAQ Visual Analog Scale-Pain, In Clinic Visit (Day 12), Min: 0.30 | SHAQ Visual Analog Scale-Pain, In Clinic Visit (Day 12), Q1: 1.900 | SHAQ Visual Analog Scale-Pain, In Clinic Visit (Day 12), Q3: 8.700 | SHAQ Visual Analog Scale-Pain, Percent Change from Baseline, Max: 75.0% | SHAQ Visual Analog Scale-Pain, Percent Change from Baseline, Mean (SD): 31.35 (37.825) % | SHAQ Visual Analog Scale-Pain, Percent Change from Baseline, Median: 10.81% | SHAQ Visual Analog Scale-Pain, Percent Change from Baseline, Min: 8.2% | SHAQ Visual Analog Scale-Pain, Percent Change from Baseline, Q1: 8.24% | SHAQ Visual Analog Scale-Pain, Percent Change from Baseline, Q3: 75.00% | SHAQ Visual Analog Scale-Raynaud's, Change from Baseline, Max: −0.10 | SHAQ Visual Analog Scale-Raynaud's, Change from Baseline, Mean (SD): −0.825 (0.9674) | SHAQ Visual Analog Scale-Raynaud's, Change from Baseline, Median: −0.500 | SHAQ Visual Analog Scale-Raynaud's, Change from Baseline, Min: −2.20 | SHAQ Visual Analog Scale-Raynaud's, Change from Baseline, Q1: −1.500 | SHAQ Visual Analog Scale-Raynaud's, Change from Baseline, Q3: −0.150 | SHAQ Visual Analog Scale-Raynaud's, In Clinic Visit (Day 12), Max: 9.20 | SHAQ Visual Analog Scale-Raynaud's, In Clinic Visit (Day 12), Mean (SD): 4.950 (3.7749) | SHAQ Visual Analog Scale-Raynaud's, In Clinic Visit (Day 12), Median: 5.200 | SHAQ Visual Analog Scale-Raynaud's, In Clinic Visit (Day 12), Min: 0.20 | SHAQ Visual Analog Scale-Raynaud's, In Clinic Visit (Day 12), Q1: 2.200 | SHAQ Visual Analog Scale-Raynaud's, In Clinic Visit (Day 12), Q3: 7.700 | SHAQ Visual Analog Scale-Raynaud's, Percent Change from Baseline, Max: −3.1% | SHAQ Visual Analog Scale-Raynaud's, Percent Change from Baseline, Mean (SD): −19.71 (16.460) % | SHAQ Visual Analog Scale-Raynaud's, Percent Change from Baseline, Median: −20.67% | SHAQ Visual Analog Scale-Raynaud's, Percent Change from Baseline, Min: −34.4% | SHAQ Visual Analog Scale-Raynaud's, Percent Change from Baseline, Q1: −33.85% | SHAQ Visual Analog Scale-Raynaud's, Percent Change from Baseline, Q3: −5.56% | SHAQ alternative disability index, Change from Baseline, Max: 0.00 | SHAQ alternative disability index, Change from Baseline, Mean (SD): −0.094 (0.0625) | SHAQ alternative disability index, Change from Baseline, Median: −0.125 | SHAQ alternative disability index, Change from Baseline, Min: −0.13 | SHAQ alternative disability index, Change from Baseline, Q1: −0.125 | SHAQ alternative disability index, Change from Baseline, Q3: −0.063 | SHAQ alternative disability index, In Clinic Visit (Day 12), Max: 1.00 | SHAQ alternative disability index, In Clinic Visit (Day 12), Mean (SD): 0.375 (0.4787) | SHAQ alternative disability index, In Clinic Visit (Day 12), Median: 0.250 | SHAQ alternative disability index, In Clinic Visit (Day 12), Min: 0.00 | SHAQ alternative disability index, In Clinic Visit (Day 12), Q1: 0.000 | SHAQ alternative disability index, In Clinic Visit (Day 12), Q3: 0.750 | SHAQ alternative disability index, Percent Change from Baseline, Max: −11.1% | SHAQ alternative disability index, Percent Change from Baseline, Mean (SD): −43.70 (48.956) % | SHAQ alternative disability index, Percent Change from Baseline, Median: −20.00% | SHAQ alternative disability index, Percent Change from Baseline, Min: −100.0% | SHAQ alternative disability index, Percent Change from Baseline, Q1: −100.00% | SHAQ alternative disability index, Percent Change from Baseline, Q3: −11.11%
